Laboratory results published in patent US6426229B1, “Chelating agent and detergent comprising the same” (Mitsubishi Rayon Co., Ltd., priority 1995, dated 2002).

Assay: Storage of aqueous solution or slurry for 60 days: HPLC analysis of components and appearance
Type: physicochemical
Conditions: keeping temperature 40° C.

Structure (SMILES) | Appearance after kept for 60 days | Content of the compound of the formula [I] in aqueous solution after kept for 60 days [wt. %]
O=C([O-])CN(CC(=O)[O-])c1ccccc1C(=O)[O-].[Fe+3] [Example 110, iron salt of anthranilic acid-N,N-diacetic acid] | Reddish brown aqueous solution | 49.3
O=C([O-])CN(CC(=O)[O-])c1ccccc1C(=O)[O-].[Fe+3] [Example 111, iron salt of anthranilic acid-N,N-diacetic acid] | Reddish brown aqueous solution | 39.8
O=C([O-])CC(NCCNC(CC(=O)[O-])C(=O)[O-])C(=O)[O-].[Na+].[Na+].[Na+].[Na+] (centres unmarked) [Example 122, tetrasodium ethylenediamine-N,N′-disuccinate] | White slurry | 74.1
O=C([O-])CC(NCCCNC(CC(=O)[O-])C(=O)[O-])C(=O)[O-].[Na+].[Na+].[Na+].[Na+] (centres unmarked) [Example 123, tetrasodium 1,3-propanediamine-N,N′-disuccinate] | White slurry | 74.1
O=C([O-])CN(CC(=O)[O-])c1ccccc1C(=O)[O-].[Fe+3] [compound 42, iron salt of anthranilic acid-N,N-diacetic acid, reference compound] | Blackish brown aqueous solution | 40.6

Same assay, conditions: keeping temperature 60° C.

Structure (SMILES) | Appearance after kept for 60 days | Content of the compound of the formula [I] in aqueous solution after kept for 60 days [wt. %]
O=C([O-])CN[C@@H](CC(=O)[O-])C(=O)[O-].[Na+].[Na+].[Na+] [compound 35, trisodium salt of (S)-aspartic acid-N-monoacetic acid, reference compound] | Brown slurry | 47.3
O=C([O-])C[C@@H](C(=O)[O-])N(CC(=O)[O-])CC(=O)[O-].[Na+].[Na+].[Na+].[Na+] [compound 36, tetrasodium salt of (S)-aspartic acid-N,N-diacetic acid, reference compound] | Brown slurry | 48.3

Same assay, conditions: keeping temperature 65° C.

Structure (SMILES) | Appearance after kept for 60 days | Content of the compound of the formula [I] in aqueous solution after kept for 60 days [wt. %]
O=C([O-])CN(CCS(=O)(=O)[O-])CC(=O)[O-].[Na+].[Na+].[Na+] [Example 106, trisodium salt of taurine-N,N-diacetic acid] | Light yellow slurry | 63.7
CN(CC(=O)[O-])CC(=O)[O-].[Na+].[Na+] [Example 107, disodium N-methyliminodiacetate] | Light yellow slurry | 64.5
O=C([O-])C[C@H](NCCN[C@@H](CC(=O)[O-])C(=O)[O-])C(=O)[O-].[Na+].[Na+].[Na+].[Na+] [Example 118, tetrasodium (S,S)-ethylenediamine-N,N′-disuccinate] | Light yellow slurry | 65.4
O=C([O-])CC(NCCCNC(CC(=O)[O-])C(=O)[O-])C(=O)[O-].[Na+].[Na+].[Na+].[Na+] (centres unmarked) [Example 119, tetrasodium 1,3-propanediamine-N,N′-disuccinate] | Light yellow slurry | 65.4

Same assay, conditions: keeping temperature 70° C.

Appearance after kept for 60 days | Content of the compound of the formula [I] in aqueous solution after kept for 60 days [wt. %] | Structure (SMILES)
White slurry | 76.9 | O=C([O-])CN(CCS(=O)(=O)[O-])CC(=O)[O-].[Na+].[Na+].[Na+] [Example 108, trisodium salt of taurine-N,N-diacetic acid]
White slurry | 78.5 | CN(CC(=O)[O-])CC(=O)[O-].[Na+].[Na+] [Example 109, disodium N-methyliminodiacetate]
White slurry | 78.4 | O=C([O-])C[C@H](NCCCN[C@@H](CC(=O)[O-])C(=O)[O-])C(=O)[O-].[Na+].[Na+].[Na+].[Na+] [Example 120, tetrasodium (S,S)-1,3-propanediamine-N,N′-disuccinate]
White slurry | 78.7 | O=C([O-])C[C@H](NCC(O)CN[C@@H](CC(=O)[O-])C(=O)[O-])C(=O)[O-].[Na+].[Na+].[Na+].[Na+] [Example 121, tetrasodium (S,S)-2-hydroxy-1,3-propanediamine-N,N′-disuccinate]

Structure (SMILES) | Appearance after kept for 60 days | Content of the compound of the formula [I] in aqueous solution after kept for 60 days [wt. %]
O=C([O-])CCN[C@@H](CC(=O)[O-])C(=O)[O-].[Na+].[Na+].[Na+] [Example 99, trisodium salt of (S)-aspartic acid-N-monopropionic acid] | White slurry | 79.4

Same assay, conditions: keeping temperature 75° C.

Appearance after kept for 60 days | Content of the compound of the formula [I] in aqueous solution after kept for 60 days [wt. %] | Structure (SMILES)
Colorless transparent aqueous solution | 49.4 | O=C([O-])CN(CCS(=O)(=O)[O-])CC(=O)[O-].[Na+].[Na+].[Na+] [Example 103, trisodium salt of taurine-N,N-diacetic acid]
Colorless transparent aqueous solution |  | CN(CC(=O)[O-])CC(=O)[O-].[Na+].[Na+] [Example 104, disodium N-methyliminodiacetate]
Colorless transparent aqueous solution | 44.3 | O=C([O-])C[C@H](NCCCN[C@@H](CC(=O)[O-])C(=O)[O-])C(=O)[O-].[Na+].[Na+].[Na+].[Na+] [Example 115, tetrasodium (S,S)-1,3-propanediamine-N,N′-disuccinate]
Colorless transparent aqueous solution | 44.7 | O=C([O-])C[C@H](NCC(O)CN[C@@H](CC(=O)[O-])C(=O)[O-])C(=O)[O-].[Na+].[Na+].[Na+].[Na+] [Example 116, tetrasodium (S,S)-2-hydroxy-1,3-propanediamine-N,N′-disuccinate]
Dark blue transparent aqueous solution | 47.9 | O=C([O-])C[C@H](NCC(O)CN[C@@H](CC(=O)[O-])C(=O)[O-])C(=O)[O-].[Cu+2].[Na+].[Na+] [Example 128, copper disodium (S,S)-2-hydroxy-1,3-propanediamine-N,N′-disuccinate]
Colorless transparent aqueous solution | 40.7 | O=C([O-])C[C@H](NCCCN[C@@H](CC(=O)[O-])C(=O)[O-])C(=O)[O-].[Na+].[Na+].[Na+].[Na+] [compound 46, tetrasodium (S,S)-1,3-propanediamine-N,N′-disuccinate, reference compound]
Colorless transparent aqueous solution | 41.8 | O=C([O-])C[C@H](NCC(O)CN[C@@H](CC(=O)[O-])C(=O)[O-])C(=O)[O-].[Na+].[Na+].[Na+].[Na+] [compound 47, tetrasodium (S,S)-2-hydroxy-1,3-propanediamine-N,N′-disuccinate, reference compound]
Dark blue transparent aqueous solution | 38.7 | O=C([O-])C[C@H](NCC(O)CN[C@@H](CC(=O)[O-])C(=O)[O-])C(=O)[O-].[Cu+2].[Na+].[Na+] [compound 52, copper disodium (S,S)-2-hydroxy-1,3-propanediamine-N,N′-disuccinate, reference compound]

Structure (SMILES) | Appearance after kept for 60 days | Content of the compound of the formula [I] in aqueous solution after kept for 60 days [wt. %]
O=C([O-])CN(CC(=O)[O-])c1ccccc1C(=O)[O-].[Na+].[Na+].[Na+] [Example 105, trisodium salt of anthranilic acid-N,N-diacetic acid] | Colorless transparent aqueous solution | 49.8
O=C([O-])CC(NCCNC(CC(=O)[O-])C(=O)[O-])C(=O)[O-].[Na+].[Na+].[Na+].[Na+] (centres unmarked) [Example 117, tetrasodium ethylenediamine-N,N′-disuccinate] | Colorless transparent aqueous solution | 49.8
O=C([O-])CC(NCCCNC(CC(=O)[O-])C(=O)[O-])C(=O)[O-].[Na+].[Na+].[Ni+2] [Example 127, nickel disodium (S,S)-1,3-propanediamine-N,N′-disuccinate] | Blue transparent aqueous solution | 44.0
O=C([O-])CN[C@@H](CC(=O)[O-])C(=O)[O-].[Na+].[Na+].[Na+] [compound 34, trisodium salt of (S)-aspartic acid-N-monoacetic acid, reference compound] | Brown aquequs solution | 30.6
CN(CC(=O)[O-])CC(=O)[O-].[Na+].[Na+] [compound 41, disodium N-methyliminodiacetate, reference compound] | Light yellow transparent aqueous solution | 29.6
O=C([O-])CC(NCCCNC(CC(=O)[O-])C(=O)[O-])C(=O)[O-].[Na+].[Na+].[Ni+2] [compound 51, nickel disodium (S,S)-1,3-propanediamine-N,N′-disuccinate, reference compound] | Blue transparent aqueous solution | 38.4
